Earlier results, collected in patent US11197860B2 (Eli Lilly and Company, priority 2018, dated 2021).

Tests used:
[1] = phase 3 trials; EMA Assessment Report for Olumiant
[2] = patients in clinical trials; ALT and AST increases to >=5x and >=10x ULN observed
[3] = PBC patients; Nevens et al. 2016

Structure (SMILES)	patient's ALP after treatment [1]	incidence of liver enzyme elevation compared to placebo [2]	pruritus (adverse effect) [3]
CCS(=O)(=O)N1CC(CC#N)(n2cc(-c3ncnc4[nH]ccc34)cn2)C1 [baricitinib, {1-(ethylsulfonyl)-3-[4-(7H-pyrrolo[2,3-d]pyrimidin-4-yl)-1H-pyrazol-1-yl]azetidin-3-yl}acetonitrile]	ALP decreased after treatment	increased incidence of liver enzyme elevation compared to placebo	
CC[C@H]1[C@@H](O)[C@@H]2[C@H](CC[C@]3(C)[C@@H]([C@H](C)CCC(=O)O)CC[C@@H]23)[C@@]2(C)CC[C@@H](O)C[C@@H]12 [obeticholic acid, Obeticholic acid]			associated with increased pruritus
